Experimental data: PubChem BioAssay AID1963828 (Molecular Pharmacology Branch, DTP, NCI, 2024)

Test system: 991263-137-R1-J2-PDC complex spheroid viability
Experiment: Anticancer human tumor 991263-137-R1-J2-PDC patient-derived colon adenocarcinoma cell line growth inhibition [POLQ]
Conditions: for IC50: curve of first compound; for viability, T/C: stronger effect = lower value
Procedure, shortened: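 Patient-derived tumour cells were co-cultured with HUVEC and mesenchymal stem cells as multicellular spheroids at 37 °C. They were treated with POLQ inhibitors (novobiocin, ART-558, RP6685) alone or combined with other agents. Top concentrations were at or near clinical Cmax (otherwise 10 microM; SN-38 at 1 microM), decreasing in half-log steps.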
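Also: spheroids exposed to compounds for 7 days before readout.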
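For viability, T/C in this document: 100% = DMSO vehicle control viability.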

CC(=O)O[C@H]1C(=O)[C@@]2(C)[C@H]([C@H](OC(=O)c3ccccc3)[C@]3(O)C[C@H](OC(=O)[C@H](O)[C@@H](NC(=O)c4ccccc4)c4ccccc4)C(C)=C1C3(C)C)[C@]1(OC(C)=O)CO[C@@H]1C[C@@H]2O + COC1C(OC(N)=O)C(O)C(Oc2ccc3c(O)c(NC(=O)c4ccc(O)c(CC=C(C)C)c4)c(=O)oc3c2C)OC1(C)C
IC50 (second compound 0.0316 µM): > 3000 nM | IC50 (second compound 0.1 µM): 1950 nM | IC50 (second compound 0.316 µM): 1580 nM | IC50 (second compound 1 µM): 1540 nM | IC50 (second compound 3.16 µM): 1850 nM | IC50 (second compound 10 µM): 1700 nM | viability, T/C (second compound 0.0316 µM, first compound 0.00949 µM): 90% | viability, T/C (second compound 0.0316 µM, first compound 0.03 µM): 100% | viability, T/C (second compound 0.0316 µM, first compound 0.0949 µM): 75.2% | viability, T/C (second compound 0.0316 µM, first compound 0.3 µM): 54.2% | viability, T/C (second compound 0.0316 µM, first compound 0.949 µM): 51.6% | viability, T/C (second compound 0.0316 µM, first compound 3 µM): 48.9% | viability, T/C (second compound 0.1 µM, first compound 0.00949 µM): 100% | viability, T/C (second compound 0.1 µM, first compound 0.03 µM): 90.3% | viability, T/C (second compound 0.1 µM, first compound 0.0949 µM): 78.7% | viability, T/C (second compound 0.1 µM, first compound 0.3 µM): 83% | viability, T/C (second compound 0.1 µM, first compound 0.949 µM): 58.8% | viability, T/C (second compound 0.1 µM, first compound 3 µM): 43% | viability, T/C (second compound 0.316 µM, first compound 0.00949 µM): 103% | viability, T/C (second compound 0.316 µM, first compound 0.03 µM): 97% | viability, T/C (second compound 0.316 µM, first compound 0.0949 µM): 75.5% | viability, T/C (second compound 0.316 µM, first compound 0.3 µM): 74.3% | viability, T/C (second compound 0.316 µM, first compound 0.949 µM): 50.3% | viability, T/C (second compound 0.316 µM, first compound 3 µM): 45.4% | viability, T/C (second compound 1 µM, first compound 0.00949 µM): 93.2% | viability, T/C (second compound 1 µM, first compound 0.03 µM): 97.5% | viability, T/C (second compound 1 µM, first compound 0.0949 µM): 83.8% | viability, T/C (second compound 1 µM, first compound 0.3 µM): 74.1% | viability, T/C (second compound 1 µM, first compound 0.949 µM): 55.6% | viability, T/C (second compound 1 µM, first compound 3 µM): 42.1% | viability, T/C (second compound 3.16 µM, first compound 0.00949 µM): 96.2% | viability, T/C (second compound 3.16 µM, first compound 0.03 µM): 83.5% | viability, T/C (second compound 3.16 µM, first compound 0.0949 µM): 81.4% | viability, T/C (second compound 3.16 µM, first compound 0.3 µM): 70.6% | viability, T/C (second compound 3.16 µM, first compound 0.949 µM): 54.5% | viability, T/C (second compound 3.16 µM, first compound 3 µM): 45.7% | viability, T/C (second compound 10 µM, first compound 0.00949 µM): 86.7% | viability, T/C (second compound 10 µM, first compound 0.03 µM): 91.2% | viability, T/C (second compound 10 µM, first compound 0.0949 µM): 96% | viability, T/C (second compound 10 µM, first compound 0.3 µM): 81% | viability, T/C (second compound 10 µM, first compound 0.949 µM): 57.1% | viability, T/C (second compound 10 µM, first compound 3 µM): 43.4%

COc1cc(C2c3cc4c(cc3C(OC3OC5COC(C)OC5C(O)C3O)C3COC(=O)C23)OCO4)cc(OC)c1O (centres undefined) + Nc1ccc(C#CCN(C(=O)Cc2ncc(C(F)(F)F)cc2C(F)(F)F)c2ccc(F)cc2)nn1
IC50 (second compound 0.0316 µM): > 10000 nM | IC50 (second compound 0.1 µM): > 10000 nM | IC50 (second compound 0.316 µM): > 10000 nM | IC50 (second compound 1 µM): > 10000 nM | IC50 (second compound 3.16 µM): > 10000 nM | IC50 (second compound 10 µM): > 10000 nM | viability, T/C (second compound 0.0316 µM, first compound 0.0316 µM): 106% | viability, T/C (second compound 0.0316 µM, first compound 0.1 µM): 94.4% | viability, T/C (second compound 0.0316 µM, first compound 0.316 µM): 108% | viability, T/C (second compound 0.0316 µM, first compound 1 µM): 94.4% | viability, T/C (second compound 0.0316 µM, first compound 3.16 µM): 93.2% | viability, T/C (second compound 0.0316 µM, first compound 10 µM): 74.4% | viability, T/C (second compound 0.1 µM, first compound 0.0316 µM): 115% | viability, T/C (second compound 0.1 µM, first compound 0.1 µM): 99.8% | viability, T/C (second compound 0.1 µM, first compound 0.316 µM): 102% | viability, T/C (second compound 0.1 µM, first compound 1 µM): 98.9% | viability, T/C (second compound 0.1 µM, first compound 3.16 µM): 91% | viability, T/C (second compound 0.1 µM, first compound 10 µM): 74.5% | viability, T/C (second compound 0.316 µM, first compound 0.0316 µM): 97.9% | viability, T/C (second compound 0.316 µM, first compound 0.1 µM): 122% | viability, T/C (second compound 0.316 µM, first compound 0.316 µM): 107% | viability, T/C (second compound 0.316 µM, first compound 1 µM): 92.4% | viability, T/C (second compound 0.316 µM, first compound 3.16 µM): 93.5% | viability, T/C (second compound 0.316 µM, first compound 10 µM): 72.2% | viability, T/C (second compound 1 µM, first compound 0.0316 µM): 100% | viability, T/C (second compound 1 µM, first compound 0.1 µM): 104% | viability, T/C (second compound 1 µM, first compound 0.316 µM): 97.8% | viability, T/C (second compound 1 µM, first compound 1 µM): 96.4% | viability, T/C (second compound 1 µM, first compound 3.16 µM): 99.9% | viability, T/C (second compound 1 µM, first compound 10 µM): 74.9% | viability, T/C (second compound 3.16 µM, first compound 0.0316 µM): 96.3% | viability, T/C (second compound 3.16 µM, first compound 0.1 µM): 96.8% | viability, T/C (second compound 3.16 µM, first compound 0.316 µM): 103% | viability, T/C (second compound 3.16 µM, first compound 1 µM): 86.7% | viability, T/C (second compound 3.16 µM, first compound 3.16 µM): 72.1% | viability, T/C (second compound 3.16 µM, first compound 10 µM): 66.1% | viability, T/C (second compound 10 µM, first compound 0.0316 µM): 89.6% | viability, T/C (second compound 10 µM, first compound 0.1 µM): 96.1% | viability, T/C (second compound 10 µM, first compound 0.316 µM): 88.7% | viability, T/C (second compound 10 µM, first compound 1 µM): 68.8% | viability, T/C (second compound 10 µM, first compound 3.16 µM): 70.9% | viability, T/C (second compound 10 µM, first compound 10 µM): 61.5%
